Test results reported in BindingDB's records for doi:10.1002/cbic.201600612 (University of Glasgow, 2017).

How the values were obtained:
Plasma kallikrein = Plasma kallikrein (Human, UniProt P03952); test: Protease Inhibition Assay; conditions: pH 7.4
Protocol: (§1) The inhibition of plasma kallikrein and coagulation factor FXII was assessed by incubating the proteases with bicyclic peptide (twofold dilutions) and measuring the residual protease activity with fluorogenic substrates. The inhibition assays were performed in buffer ([…]) containing Tris HCl (pH 7.4, 10 mm), NaCl (150 mm), MgCl2 (10 mm), CaCl2 (1 mm), bovine serum albumin (BSA, 0.1 %, w/v), Triton-X100 (0.01%, v/v), and DMSO (5 %, v/v). Final concentrations of human plasma kallikrein (Innovative Research) and human FXII (Innovative Research)were 0.25 nm and 10 nm, respectively. The fluorogenic substrates Z-Phe-Arg-AMC (plasma kallikrein) and Z-Gly-Gly-Arg-AMC (FXII) were used at a final concentration of […]. Fluorescence intensity was measured with a Tecan Infinite M 200 Pro plate reader (λex= 368 nm, λem=468 nm).

Coagulation factor XII = target: T1, Coagulation factor XII (Homo sapiens, UniProt P00748); test: Protease Inhibition Assay; conditions: pH 7.4
T1 sequence (P00748 whole entry): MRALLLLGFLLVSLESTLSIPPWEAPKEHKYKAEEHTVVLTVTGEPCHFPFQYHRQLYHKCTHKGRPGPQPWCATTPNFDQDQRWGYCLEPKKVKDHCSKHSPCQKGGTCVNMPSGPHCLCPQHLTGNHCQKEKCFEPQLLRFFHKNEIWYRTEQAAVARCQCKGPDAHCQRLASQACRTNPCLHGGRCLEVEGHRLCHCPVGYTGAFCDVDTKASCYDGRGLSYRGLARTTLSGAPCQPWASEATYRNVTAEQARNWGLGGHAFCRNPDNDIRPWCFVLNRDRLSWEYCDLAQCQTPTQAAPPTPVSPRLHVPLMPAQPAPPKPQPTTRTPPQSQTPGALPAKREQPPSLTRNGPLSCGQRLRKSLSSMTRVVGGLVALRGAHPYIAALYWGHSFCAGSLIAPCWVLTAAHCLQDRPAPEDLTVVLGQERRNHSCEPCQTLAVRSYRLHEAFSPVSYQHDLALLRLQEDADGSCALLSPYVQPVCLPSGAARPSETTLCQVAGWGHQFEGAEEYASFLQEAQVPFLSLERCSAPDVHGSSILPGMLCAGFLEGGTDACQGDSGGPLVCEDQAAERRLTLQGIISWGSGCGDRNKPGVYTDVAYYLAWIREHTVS
Protocol: as §1

Chain of Plasma kallikrein (P03952 20-390 S143N limits assumed): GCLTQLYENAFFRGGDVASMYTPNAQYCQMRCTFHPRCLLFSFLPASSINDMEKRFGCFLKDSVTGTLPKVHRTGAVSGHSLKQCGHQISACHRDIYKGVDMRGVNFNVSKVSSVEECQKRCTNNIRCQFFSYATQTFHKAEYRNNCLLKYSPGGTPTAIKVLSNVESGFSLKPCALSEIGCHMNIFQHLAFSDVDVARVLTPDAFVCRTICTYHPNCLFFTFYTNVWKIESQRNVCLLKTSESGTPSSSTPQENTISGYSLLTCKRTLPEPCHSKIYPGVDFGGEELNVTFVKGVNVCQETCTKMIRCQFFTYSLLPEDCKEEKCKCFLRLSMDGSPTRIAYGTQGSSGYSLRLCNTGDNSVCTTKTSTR
Chain of Plasma kallikrein (P03952 391-638 limits assumed): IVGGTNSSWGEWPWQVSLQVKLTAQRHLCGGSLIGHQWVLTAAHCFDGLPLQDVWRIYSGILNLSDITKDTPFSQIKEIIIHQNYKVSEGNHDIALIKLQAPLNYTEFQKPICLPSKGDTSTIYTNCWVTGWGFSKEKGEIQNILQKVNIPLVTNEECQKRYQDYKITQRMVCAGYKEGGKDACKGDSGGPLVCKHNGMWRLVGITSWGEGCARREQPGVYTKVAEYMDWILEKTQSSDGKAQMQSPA

SMILES | Ki (Plasma kallikrein) | Ki (Coagulation factor XII)
CSCC(=O)N1CN(C(=O)CSC)CN(C(=O)CSC)C1 [TATB-FXII618 (15)] | 540 nM | 340 nM
CSCc1nc(CSC)nc(CSC)n1 [TBMT-FX618 (16)] | 20 nM | 1220 nM
CSCCC(=O)N1CN(C(=O)CCSC)CN(C(=O)CCSC)C1 [TATA-FXII618 (14)] | – | 25 nM
CSCc1cc(CSC)cc(CSC)c1 [TBMB-PK15 (10)] | 1.3 nM | –
